The values below come from US20150352114A1, “MITOTIC KINESIN Eg5 INHIBITING ANTICANCER AGENTS” (THE CLEVELAND CLINIC FOUNDATION, priority 2014, published 2015).

Test [1] concerns GFP-positive tumor cells. Kind of test: Brain slice culture time-lapse cell migration, PDGF-IRES-GFP retrovirus glioma model. Type of test: cell-based, rat. As to conditions: 200 nM. Here is the method: The PDGF-IRES-GFP retrovirus was produced according to well known methods previously described. P3 neonatal Sprague-Dawley rats were anesthetized using hypothermia. Briefly, each pup was carefully wrapped in several layers of gauze and then covered with ice. After 12 minutes, the rat pup's head was placed in a DKI 963 Stereotaxic Alignment Instrument (David Kopf Instruments, Tujunga, Calif.). The bregma was identified and using a sterile 18 gauge needle a small hole was poked into the skull that was 1 mm rostral and 2 mm to the right of the bregma. A 27-gauge Hamilton microsyringe (Reno, Nev.) was then inserted to a depth of 1.5 mm, and 2 ul of virus was injected at a rate of 0.2 ul/min.
At days P8, P9, and P10, PDGF-IRES-GFP injected rat pups were anesthetized with Ketamine/Xylazine cocktail and decapitated. Brains were isolated and 300-um coronal sections were taken in the vicinity of the injection site using a McIlwain tissue chopper. The slices were transferred onto a porous 0.4-um culture plate insert (Millipore, Billerica, Mass.) and then placed into Glass Bottom 6 well plates (P06G-0-20-F, MatTek Corp, Ashland, Mass.) containing slice culture media (MEM, 2 mM L-glutamine, […], 10% Glucose, Its (Sigma, 12521) and Anti-Anti (Gibco, 15240-062)). Microglial and perivascular cells of the brain sections were stained with Isolectin GS-IB4, Alexa fluor 594 conjugate (Invitrogen) for 30 minutes at 37° C., washed three times with PBS and returned to a humidified atmosphere at 5% (CO2). Images of the brain slices for time-lapse microscopy were acquired with a Perkin Elmer UltraView Spinning Disk microscope on a Leica DMI 6000 with a 10× Plan Apo 0.4 NA objective lens. During imaging, the brain slices were placed in a stage mounted 37° C. incubator where 60% humidity and 5% CO2 was maintained. The emission range for 488 and 561 is […] and 580-650, respectively and acquisition and analysis were performed using Velocity software. The migratory path of the individual cells was then tracked every 7 minutes by marking the position of the cell body at consecutive time points.
Fluorescence, time-lapse image stacks consisting of ˜150 frames (7 minute intervals) were imported into Image-Pro Plus (v7.0, Media Cybernetics, Silver Spring, Md.). Gliomal cell tracking for each treatment group (55 cells/group) was performed in a semi-automated fashion using a combination of Fourier correlation and user-guided input. Cells selected for tracking were chosen randomly from the periphery of the tumor mass in each image stack. X and Y coordinates from each cell track were exported to Excel and translated such that each cell's track originated from a common origin (0,0). […] Mean-squared displacement for tracked cells in each group was analyzed using a persistent random-walk model (1,2). Speed (um/s) and persistence (min) were extracted using a non-linear least-squared regression to the model equation for each track and averaged for each treatment group.

Test [2] deals with human brain microvascular endothelial cells. The test is described as follows: Endothelial tube formation on Matrigel. It is filed as cell-based. As to conditions: 200 nM; 6-hour time course. Here is the method: Primary Human Brain Microvascular Endothelial Cells were purchased from Cell Systems (Kirkland, Wash.) and used at passages 3 through 6. Cells were maintained in EGM-2 MV media from Lonza (Walkersville, Md.) and stained with CellTracker™ Green CMFDA Dye from Invitrogen (Eugene, Oreg.) for fluorescent imaging. Tube formation assays were performed on Matrigel from Corning (Tewksbury, Mass.) in glass bottom 6-well plates from MatTek (Ashland, Mass.). Cells were plated at a density of 1.3×10^4 per cm^2 and imaged at the indicated times.

The test system of test [3] is 08-387 GSCs. Kind of test: Transwell in vitro invasion assay. It is filed as cell-based, human. The method, then:
08-387 GSCs enriched in G1 (8 hours post final thymidine release) were pre-exposed to vehicle or ispinesib (200 to 0 nM at a two-fold dilution) for one hour prior to being seeded onto Matrigel coated FluoroBlok Cell Culture Inserts at 125,000 cells per insert (±vehicle or ispinesib, plated in triplicate) with Neurobasal media supplemented with 10% FBS in the lower reservoir (BD Falcon, Franklin Lakes, N.J.). After 8 hours, membranes were processed for analysis with nuclei stained with DAPI. Nuclei on the lower surface of the membrane within the central field were scored using the 20× objective on a Leica DMIRB inverted microscopes.

The test system of test [4] is GSCs from patient derived xenograft 08-387. The test is described as follows: Measurement of microtubule dynamics, EB1-EGFP. Type of test: cell-based, human. Conditions: 200 nM; 7 hours. Here is the method:
GSCs from patient derived xenograft 08-387 were cultured in Neurobasal Media, as previously described. Cells were plated on tissue culture dishes coated with GelTrex (Gibco®, Life Technologies, Carslbad, Calif.) and transfected with EB1-EGFP plasmid using FuGene® HD transfection reagent (Promega Corporation, Madison, Wis.) in a 3:1 (FuGene:DNA) ratio. Cells were transferred to GelTrex-coated 35 mm No. 1.5 glass MatTek dishes (MatTek Corporation, Ashland, Mass.) at a density of 50,000 cells per dish 48 hours following transfection, and allowed to adhere overnight prior to imaging. Dynamics measurements were obtained at 30 minutes and 7 hours following addition of vehicle (DMSO) or ispinesib (200 nM) to cell culture media.
Streaming time-lapse images of EB1-EGFP-expressing cells were acquired at 300 ms per frame for 1 minute (200 total frames) at using a Nikon TiE epifluorescence microscope (Nikon Instruments Inc., Melville, N.Y.) equipped with a Zyla 5.5 sCMOS camera (Andor Technology Ltd., Belfast, Ireland) under control of NIS Elements software (Nikon). Fluorescence illumination during imaging was provided by a SpectraX Light Engine® (Lumencor Inc., Beaverton, Oreg.) and a GFP/mCherry filter set (Chroma Technology Corp., Bellows Falls, Vt.). […]

[5] abbreviates: Persistent Random Walk model fit.

In the case of `Cc1ccc(C(=O)N(CCCN)[C@@H](c2nc3cc(Cl)ccc3c(=O)n2Cc2ccccc2)C(C)C)cc1` [ispinesib, N-(3-amino-propyl)-n-[R-1-(3-benzyl-7-choloro-4-oxo-3,4-dihydroquinazolin-2-yl)-2-methyl-propyl]-4-methyl-benzamide methanesulfonate], in test [1], the “tumor dispersion (Wind Rose plots, MSD)” value is “clear reduction in tumor dispersion”. For the same molecule, in test [1] (versus control), the “reduction in mean squared displacement” value is listed as “approximately four-fold” and the “reduction of cell velocity” value is on record as “approximately two-fold”. In addition, in test [1] (setting [5]), the cell velocity is listed as 11.3±0.2 μm/hr and the persistence time worked out at 2.3 ± 0.1 h. For the same molecule, the endothelial tube formation result in test [2] is “failed to properly organize into tubes”. Moreover, the “fewer cells migrated per field compared to vehicle control” value in test [3] (200 nM) is “approximately 6 fold”. Also, the EC50 in test [3] (Homo sapiens, 8 h, read-out: EC50, Transwell migration) was found to be 67.2 nM. Moreover, in test [3] (interphase-enriched cells, 8 hours), the Transwell migration result is listed as “completely block”. In test [4], the EB1 comet velocity result is reported as “significant increase” and the microtubule growth times entry is “reduced microtubule growth times”.
